This note sets out measurements from patent US10765758B2, “Optimized in vivo delivery system with endosomolytic agents for nucleic acid conjugates” (ONXEO, priority 2010, dated 2020).

{Cy3} = cyanine 3 fluorescent label; {Chol} = cholesterol

The subject of one data set is MRC5 cell line. As to the kind of experiment: Flow cytometry analysis of cellular uptake in the MRC5 cell line (Cy3). It is filed as cell-based, human. The procedure: Cellular uptake of the Dbait conjugated to cholesterol, in particular CoDbait, in comparison with the Dbait was measured by the inventors by flow cytometry analysis.
Flow cytometry analysis of cellular uptake in the MRC5 cell line performed at 5 hours after the beginning of treatment of various transfection conditions was as described in the table.

Data set [1] deals with SV40 transformed fibroblasts MRC-5. As to the kind of experiment: Flow cytometry cellular uptake of formulated Dbait-cy3 (Table 1). It is filed as cell-based, human. The procedure:
(§1) The inventors monitored the cellular uptake of the different complexes using a fluorescent cy3-modified Dbait. The initial fluorescence of the cy3-Dbait complex was monitored immediately before transfection. […] Cellular content of human transfected fibroblast cells was measured by flow cytometry analysis.
The Dbait molecules were made by automated solid-phase oligonucleotide synthesis. […] […] (SEQ ID NO: 4) where H is a hexaethyleneglycol linker. Studies on cells in culture were performed using SV40 transformed fibroblasts MRC-5. Cells were grown at 37° C. in monolayer cultures in complete DMEM (Gibco, Cergy-Pontoise, France) with 10% FCS and antibiotics (100 μg/mL streptomycin and 100 μg/mL penicillin) under conditions of 100% humidity, 95% air and 5% CO2. Unless otherwise specified, transfections were performed in 1.2 mL MEM medium without serum in 60 mm diameter plates. Transfection with jetPEI (Polyplus-transfection, Illkirch, France) was performed at an N/P ratio of 6 according to the manufacturer's instructions. Briefly, Dbait was diluted in 150 mM NaCl and gently mixed with an equal volume of PEI in 150 mM NaCl and added to DMEM medium without serum. coDbait was directly added to DMEM medium without serum. Transfection of Dbait molecules was performed with SuperFect reagent in 1.2 mL DMEM medium with serum (in 60 mm diameter plates) for 5 hours and then cells were left to recover for 1 hour if not indicated otherwise. For electroporation, 1.2×10^6 cells were transfected with 2 μg Dbait using the Gene Pulser II (Bio-Rad, Marnes-la-Coquette, France). At the end of the 5h transfection (time zero), medium was replaced by complete medium and cells were grown for the indicated time before being analyzed.
Cells were transfected with different complexes with Dbait-cy3 for 5 h and allowed to grow 5 hours or 24 hours, then rapidly washed with PBS. Cells were directly analyzed by flow cytometry. For immunofluorescence detection by flow cytometry, the cells were fixed in 2% paraformaldehyde for 10 min prior to immunodetection. […] Cells were washed with PBS and resuspended in PBS with 50 μg/mL propidium iodide, 25U/ml RNaseA. Cells were analyzed by a FACSCalibur flow cytometer (BD Biosciences, Franklin Lakes, N.J., USA) and data was analyzed using BD CellQuest Pro (BD Biosciences) and the free WinMDI 2.8 (Scripps Research Institute, La Jolla, Calif., USA) software.
A general note: A flow cytometer gives signals particle by particle.

For data set [2], the system named is SK28 xenografted human melanoma. As to the kind of experiment: SK28 xenograft survival and tumor growth delay after irradiation with formulated Dbait (Table 2). The note with it: IT; for Mean TGD: tumor growth delay.
Method: The antitumoral effect of formulated Dbait was tested in combination with radiotherapy on SK28 xenografted human melanoma. Dbait/vector complexes were administered 5 hours before each irradiation using intratumoral injections.
SK28 or U87G xenograft tumors were obtained by injecting 10^6 tumor cells into the flanks of adult female nude mice (Charles River strain; L'Arbresle, France). […] After approximately 12 days, when the subcutaneous tumors measured 150-200 mm^3, the mice were separated into homogeneous groups of at most 12 each to receive different treatments. […] Doses were controlled by thermoluminescence dosimetry. A total dose of 30 Gy was delivered in 6 sessions at intervals of three sessions of 5 Gy per week during two weeks. Dbait molecules were prepared in 100 μL of 10% sucrose as previously described for in vitro studies except that PEI mixtures were performed without NaCl (Polyplus-transfection, Strasbourg, France). The Dbait mixtures were incubated for 15 min at room temperature before injection. CoDbait was diluted in 10% sucrose at the required concentration. Intratumoral injections of the indicated amount of Dbait were performed 5 h before each radiotherapy session. Mock treated animals were injected with 100 μL of 10% glucose according to the protocol of the associated assays. Tumor size was assessed by caliper measurements every three days and size was calculated by the formula (2× length×width^2). Mice were weighed and pictures of tumors were taken every week. For ethical reasons, the animals were sacrificed when their tumors reached 2,000 mm^3. The end point used in survival analysis was death day.
Descriptive analyses of the tumor response were performed for each treatment and each tumor type. Day 1 was the day of the first treatment session. All animals were followed for at least 150 days. Median lifetime was estimated according to the Kaplan-Meier method. Tumor growth delay (TGD) was calculated by subtracting the mean tumor volume quadrupling time of the control group from tumor volume quadrupling times of individual mice in each treated group. The mean TGD was calculated for each treated group using the individual measurements. […] A global LogRank was first performed for each group with the same tumor type. Then treatments with Dbait were compared to the mock-treated controls. All tests were considered significant at the 0.05 significance level.
For another data set, the system named is SK28 melanoma xenograft. Conditions: coDbait 0.6 mg IT alone (group 4) or CQ 1 mg i.p. alone (group 3), with irradiation.
Data set [3] is described as follows: Fluorescence of formulated cy3-Dbait before transfection. The note with it: fluorescence at FL2 value of the cy3-Dbait formulation. The procedure: as §1
Cells were directly analyzed by flow cytometry. For immunofluorescence detection by flow cytometry, the cells were fixed in 2% paraformaldehyde for 10 min prior to immunodetection. […] Cells were washed with PBS and resuspended in PBS with 50 μg/mL propidium iodide, 25U/ml RNaseA. Cells were analyzed by a FACSCalibur flow cytometer (BD Biosciences, Franklin Lakes, N.J., USA) and data was analyzed using BD CellQuest Pro (BD Biosciences) and the free WinMDI 2.8 (Scripps Research Institute, La Jolla, Calif., USA) software.

The test system of the next data set is zebrafish embryos. As to the kind of experiment: Injection into 1K-stage zebrafish embryos: distribution and 24 h phenotype toxicity. The note with it: same concentration of Dbait, by adjuvant.
The mark [4] stands for this setting: corrected cellular content FL2/fluorescence, Dbait 1.6 μg/mL.

From the text for SK28 melanoma xenograft: Survival of five groups of nude mice bearing SK28 melanoma xenografts has been studied.
Method for zebrafish embryos: More than 100 embryos were analyzed for each condition.
The observation of phenotypic effects 20 hours after injection allowed assessment of Dbait activity and treatment overall toxicity. […] The 24-hour phenotypes were categorized as described (FIG. 3), allowing quantification of the injected mixture's toxicity.
Zebrafish eggs were obtained from natural spawning of wild type or transgenic (flactin:egfp-ras) fish lines. […] Glass capillaries (Harvard Apparatus GC100-10) were pulled with a KopF vertical pipette puller (KopF 720) to make injection needles. 2 to 5 nl of Dbait solution were injected at the animal pole of embryos in cell cycle 10 and immediately processed for confocal laser scanning microscopy imaging (upright Leica SP2) with 40×/0.8 NA water dipping lens objective. Imaging was performed by simultaneous 480 nm (eGFP) and 561 nm (cy3) excitation. […] One-day-old larvae were observed under the dissecting stop and phenotypes categorized as described in FIG. 3. […] Dbait (coDbait)-cy3 50 μM was injected either alone or in combination with PEI25K (ratio N/P=9), PEI11K (ratio N/P-6), or SuperFect (10 μl/1 μg Dbait).

Regarding “Co_siRNA_H2AX-Cy3: siRNA targeting H2AX with a cyanine 3 and a cholesterol at the 5′ and 3′ of the sense strand (sense CAACAAGAAGACGCGAAUCTT; antisense GAUUCGCGUCUUCUUGUUGTT; sense: 5' {Cy3}, 3' {Chol}, sugars by position and backbone not given here; antisense: chemistry not given here)”, the “Cy3 fluorescence intensity @5 hrs. Mean” value in the data set on MRC5 cell line (79 nM) was determined as 56; with MRC5 cell line (79 nM + CQ 50 μM), 63; in the data set on MRC5 cell line (986 nM), 710; in the data set with MRC5 cell line (986 nM + CQ 50 μM), 1214. Moreover, the “Cy3 fluorescence intensity @5 hrs. Median” value in the data set on MRC5 cell line (79 nM) came to 53; in the data set with MRC5 cell line (79 nM + CQ 50 μM), 60; in the data set on MRC5 cell line (986 nM) it was 661; in the data set on MRC5 cell line (986 nM + CQ 50 μM), 1144.

On to `CCN(CC)CCCC(C)Nc1ccnc2cc(Cl)ccc12` (stereo not shown) [chloroquine, 7-chloro-4-(4-diethylamino-1-methylbutyl-amino)quinoline], for which the “MCC 5 hrs” value in data set [1] (mean cellular content FL2 value, no Dbait, chloroquine only) came to 3.12. For the same molecule, in data set [2] (CQ without Dbait), the “Mean % TGD” value is on record as 142%, the Median survival time is listed as 68 and the “Mean TGD” value is given as 8. In addition, the radiosensitization entry in the data set on SK28 melanoma xenograft was “neither coDbait (group 4) nor CQ (group 3) showed significant radiosensitization”.

Take “Dbait: 32-bp hairpin DNA, SEQ ID NO: 4, hexaethyleneglycol linker; mimics double strand breaks (DNA GCTGTGCCCACAACCCAGCAAACAAGCCTAGA; DNA, backbone not given here; hairpin DNA with hexaethyleneglycol linker)”: in data set [1] (setting [4]), the “cor MCC 5 hrs” value was 0.43 and the “cor MCC 24 hrs” value is recorded as 0.56. For the same molecule, in data set [1] (flow cytometry), the “fluorescence distribution of treated cells” value is reported as “not different from untreated controls”. Further, the “MCC 24 hrs” value in data set [1] (mean cellular content FL2 value, Dbait 1.6 μg/mL) came out at 3.45. Also, in data set [1] (mean cellular content FL2 value, Dbait 1.6 μg/mL, chloroquine +/− as in row), the “MCC 5 hrs” value amounted to 2.65. Further, in data set [2] (6 × 60 μg (3 nmol)), the “Mean % TGD” value worked out at 114%, the Median survival time was found to be 63 and the “Mean TGD” value came to 3. This molecule also returned a Cured mice in data set [2] (6 × 60 μg (3 nmol), no recurrence within 300 days) of 0. The molecule also showed a Relative risk in data set [2] (6 × 60 μg (3 nmol), versus mock) of 1.40. Also, the “fluorescence × 10e−6/μg/mL” value in data set [3] is listed as 6 10e−6/μg/mL. Also, the “24-hour phenotype / toxicity in zebrafish embryos” value with zebrafish embryos is listed as “no effect on development”.
